Where “and” joins values, the source holds several entries; their conditions need not be identical. Equal entries are not always repeated.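 Assay format: 96-well plates, 48-hour exposure. The concentration for 50% growth inhibition is given as GI50. Definition used: TGI = concentration required for complete inhibition of growth.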
Experiments:
Assay in all cases: NCI tumour cell line growth inhibition, 48 h
[1] = system: RPMI-8226 leukemia
[2] = system: MALME-3M melanoma
[3] = system: ACHN renal
[4] = system: RXF 393 renal
[5] = system: UO-31 renal
[6] = system: SNB-19 CNS
[7] = system: LOX IMVI melanoma
[8] = system: U251 CNS
[9] = system: KM12 colon
[10] = system: SNB-75 CNS

`C=C1CCC2C3(C)COC(c4ccc(NC(C)=O)cc4)OC3CCC2(C)C1C/C=C1/C(=O)OCC1O` (stereo not given) showed a GI50 [1] of 0.985 µM, a TGI [1] of 8.32 µM and a GI50 [2] of 5.96 µM. The TGI [2] was over 100 µM, the GI50 [3] was 7.63 µM and the TGI [3] was over 100 µM. The GI50 [4] was 46.9 µM, the TGI [4] was over 100 µM and the GI50 [5] was 5.43 µM. It also gave a TGI [5] of over 100 µM, a GI50 [6] of over 100 µM and a TGI [6] of over 100 µM. For the same compound, the GI50 [7] was 21 µM, the TGI [7] was over 100 µM and the GI50 [8] was 79 µM. It also gave a TGI [8] of over 100 µM, a GI50 [9] of 5.07 µM and a TGI [9] of over 100 µM. It also gave a GI50 [10] of over 100 µM and a TGI [10] of over 100 µM.
With `O=C(N/N=C(/c1nc2ccc(Cl)cc2[nH]c1=O)C(O)c1ccc(Cl)cc1Cl)c1ccncc1` (stereo not given) the TGI [1] was over 100 µM, the TGI [2] was over 100 µM and the TGI [3] was over 100 µM. For the same compound, the TGI [4] was over 100 µM, the TGI [5] was over 100 µM and the TGI [6] was over 100 µM. For the same compound, the TGI [7] was over 100 µM, the TGI [8] was over 100 µM and the TGI [9] was over 100 µM. It also gave a TGI [10] of over 100 µM.
`CCOC(=O)c1sc(-c2ccc(OS(=O)(=O)c3cccs3)c(C=O)c2)nc1C` was tested, and the GI50 [1] was 1.01 µM, the TGI [1] was 4.72 µM and the GI50 [2] was 2.22 µM. For the same compound, the TGI [2] was 5.69 µM, the GI50 [3] was 2.06 µM and the TGI [3] was 5.88 µM. The GI50 [5] was 1.73 µM, the TGI [5] was 5.13 µM and the GI50 [6] was 1.37 µM. It also gave a TGI [6] of 2.95 µM, a GI50 [7] of 1.77 µM and a TGI [7] of 3.33 µM. It also gave a GI50 [8] of 1.19 µM, a TGI [8] of 2.83 µM and a GI50 [9] of 1.47 µM. The TGI [9] was 3.24 µM, the GI50 [10] was 1.57 µM and the TGI [10] was 4.07 µM.
In the case of `O=C(c1ccccc1)C1C(C(=O)c2ccccc2)N1Cc1ccccc1` (stereo not given), the TGI [1] is reported as over 100 µM, the TGI [2] is reported as 77.3 µM and the TGI [3] is reported as over 100 µM. For the same compound, the TGI [5] was over 100 µM, the TGI [6] was over 100 µM and the TGI [7] was over 100 µM. The TGI [8] was over 100 µM, the TGI [9] was over 100 µM and the TGI [10] was 57.1 µM.
`Cn1cnc([N+](=O)[O-])c1Sc1ccccn1` was tested, and the TGI [1] was over 100 µM, the TGI [2] was over 100 µM and the TGI [3] was over 100 µM. The TGI [5] was over 100 µM, the TGI [6] was over 100 µM and the TGI [7] was over 100 µM. For the same compound, the TGI [8] was over 100 µM, the TGI [9] was over 100 µM and the TGI [10] was over 100 µM.
`CCOC1OCCCC1Br` (stereo not given) gave a TGI [1] of over 100 µM, a TGI [2] of over 100 µM and a TGI [3] of over 100 µM. The TGI [4] was over 100 µM, the TGI [5] was over 100 µM and the TGI [6] was over 100 µM. For the same compound, the TGI [7] was over 100 µM, the TGI [9] was over 100 µM and the TGI [10] was over 100 µM.
In the case of `COc1ccc(/C=C/c2c(C(=O)/C=C/c3ccc(Cl)cc3)c(C)nc3ccccc23)cc1`, the GI50 [1] is reported as 1.91 µM, the TGI [1] is reported as 6.77 µM and the GI50 [2] is reported as 1.69 µM. For the same compound, the TGI [2] was 3.21 µM, the GI50 [3] was 1.55 µM and the TGI [3] was 2.97 µM. For the same compound, the GI50 [4] was 1.78 µM, the TGI [4] was 3.34 µM and the GI50 [5] was 1.21 µM. For the same compound, the TGI [5] was 2.47 µM, the GI50 [6] was 1.74 µM and the TGI [6] was 3.29 µM. It also gave a GI50 [7] of 1.51 µM, a TGI [7] of 2.9 µM and a GI50 [8] of 1.75 µM. For the same compound, the TGI [8] was 3.55 µM, the GI50 [9] was 1.73 µM and the TGI [9] was 3.56 µM. It also gave a GI50 [10] of 1.5 µM and a TGI [10] of 3.14 µM.
With `COc1ccccc1/C=C\c1cnnc2ccccc12` the TGI [1] was over 10 µM, the TGI [2] was over 10 µM and the TGI [3] was over 10 µM. The TGI [4] was over 10 µM, the TGI [6] was over 10 µM and the TGI [7] was over 10 µM. The TGI [8] was over 10 µM, the TGI [9] was over 10 µM and the TGI [10] was over 10 µM.
`S=c1nc(-c2ccccc2)oc(=NC2CCCCC2)n1C1CCCCC1` gave a GI50 [1] of 2.69 µM, a TGI [1] of 6.51 µM and a GI50 [3] of 4.14 µM. For the same compound, the TGI [3] was 14.2 µM, the GI50 [5] was over 100 µM and the TGI [5] was over 100 µM. It also gave a GI50 [6] of 5.05 µM, a TGI [6] of 17.4 µM and a GI50 [7] of 4.89 µM. For the same compound, the TGI [7] was 20.8 µM, the GI50 [8] was 3.85 µM and the TGI [8] was 15.2 µM. It also gave a GI50 [9] of 3.48 µM, a TGI [9] of 10.1 µM and a GI50 [10] of 4.65 µM. It also gave a TGI [10] of 17.5 µM.
Work on `COc1ccc(N2CCN(C(=O)c3ccccc3Nc3ccnc(C(F)(F)F)c3)CC2)cc1` yielded a GI50 [1] of 9.48 µM, a TGI [1] of over 100 µM and a GI50 [2] of over 100 µM. It also gave a TGI [2] of over 100 µM, a GI50 [3] of over 100 µM and a TGI [3] of over 100 µM. The GI50 [4] was 99.9 µM, the TGI [4] was over 100 µM and the GI50 [5] was 28 µM. For the same compound, the TGI [5] was over 100 µM, the GI50 [6] was 78.3 µM and the TGI [6] was over 100 µM. The GI50 [7] was 60.1 µM, the TGI [7] was over 100 µM and the GI50 [8] was 83.9 µM. For the same compound, the TGI [8] was over 100 µM, the GI50 [9] was 76.9 µM and the TGI [9] was over 100 µM. It also gave a GI50 [10] of 50.5 µM and a TGI [10] of over 100 µM.
`CC1(C)CCC[C@]23C(=O)O[C@](O)(C(=O)C4=C[C@@](C)(/C=C/CCCc5ccc6ccc7cccc8ccc5c6c78)CC[C@@]42O)[C@@H]13` gave a GI50 [1] of 0.196 µM, a TGI [1] of 0.571 µM and a GI50 [2] of 0.177 µM. The TGI [2] was 0.332 µM, the GI50 [3] was 0.156 µM and the TGI [3] was 0.29 µM. It also gave a GI50 [4] of 0.174 µM, a TGI [4] of 0.335 µM and a GI50 [5] of 0.156 µM. It also gave a TGI [5] of 0.291 µM, a GI50 [6] of 0.188 µM and a TGI [6] of 0.414 µM. It also gave a GI50 [7] of 0.164 µM, a TGI [7] of 0.31 µM and a GI50 [8] of 0.17 µM. For the same compound, the TGI [8] was 0.344 µM, the GI50 [9] was 0.154 µM and the TGI [9] was 0.34 µM. For the same compound, the GI50 [10] was 0.149 µM and the TGI [10] was 0.284 µM.
For `COC(=O)c1c[nH]c(=O)[nH]c1=O`, the TGI [1] was over 100 µM, the TGI [3] was over 100 µM and the TGI [5] was over 100 µM. The TGI [6] was over 100 µM, the TGI [7] was over 100 µM and the TGI [9] was over 100 µM. The TGI [10] was over 100 µM.
In the case of `O=c1[nH]cc(CS(=O)(=O)Cc2c[nH]c(=O)[nH]c2=O)c(=O)[nH]1`, the TGI [1] is reported as over 100 µM, the TGI [2] is reported as over 100 µM and the TGI [3] is reported as over 100 µM. The TGI [4] was over 100 µM, the TGI [5] was over 100 µM and the TGI [6] was over 100 µM. For the same compound, the TGI [7] was over 100 µM, the TGI [8] was over 100 µM and the TGI [9] was over 100 µM. For the same compound, the TGI [10] was over 100 µM.
`CN(C)c1ccc(/C=C2\C[C@H]3[C@@H]4CC=C5C[C@@H](N6CCCC6)CC[C@]5(C)[C@H]4CC[C@]3(C)[C@H]2O)cc1` was tested, and the GI50 [1] was 3.1 µM, the GI50 [2] was 2.55 µM and the TGI [2] was 1.69 µM and 8.35 µM. The GI50 [3] was 1.82 µM, the TGI [3] was 1.71 µM and 3.34 µM and the GI50 [4] was 3.47 µM. For the same compound, the TGI [4] was 2.65 µM and 12.3 µM, the GI50 [5] was 1.96 µM and the TGI [5] was 1.62 µM and 4.25 µM. For the same compound, the GI50 [6] was 2.41 µM, the TGI [6] was 6.94 µM and 9.08 µM and the GI50 [7] was 2.25 µM. The TGI [7] was 1.57 µM and 4.72 µM, the GI50 [8] was 1.78 µM and the TGI [8] was 1.92 µM and 3.31 µM. The GI50 [9] was 5.48 µM, the TGI [9] was 10.7 µM and 50.9 µM and the GI50 [10] was 3.4 µM. The TGI [10] was 3.01 µM and 14.9 µM.
`C=C(C=O)C1CC(=O)C(C(=O)OC)[C@@H]2O[C@@](C)(CC2=O)C[C@@H]2OC(=O)[C@]3(O[C@@H]23)[C@@H](C(=O)OC)C1` (stereo not given in full) was tested, and the GI50 [1] was 4.16 µM, the TGI [1] was 21.8 µM and the GI50 [4] was 9.3 µM. For the same compound, the TGI [4] was 33.6 µM, the GI50 [5] was 19 µM and the TGI [5] was 48.9 µM. The GI50 [6] was 38.3 µM, the TGI [6] was over 100 µM and the GI50 [7] was 7.94 µM. The TGI [7] was 21.3 µM, the GI50 [8] was 14.6 µM and the TGI [8] was 39.8 µM. The GI50 [9] was 19.2 µM, the TGI [9] was 45 µM and the GI50 [10] was 31 µM. It also gave a TGI [10] of over 100 µM.
Work on `CCC1C(C)c2c([nH]c3ccccc23)C2C(=O)N(c3ccccc3)C(=O)C21` (stereo not given) yielded a TGI [1] of 40.9 µM, a TGI [2] of 30.4 µM and a TGI [3] of 66.5 µM. For the same compound, the TGI [4] was 26 µM, the TGI [7] was 31.8 µM and the TGI [8] was 29.3 µM. For the same compound, the TGI [9] was 32.1 µM and the TGI [10] was 39.4 µM.

Source: PubChem BioAssay (NCI)
